The record followed here is patent US7521454B2 (Dainippon Sumitomo Pharma Co., Ltd., priority 2001, dated 2009).

One test has as its system Balb/c male mouse. Put plainly: Interferon-inducing activity in mouse (in vivo), serum interferon titer after oral dosing. The settings on record: serum 2 h after dosing, Balb/c mouse.
In test [1] the test system is rat model of eosinophil leukocytic infiltration. Put plainly: Rat model of eosinophil leukocytic infiltration (OVA, bronchoalveolar lavage). The class given is in vivo. The settings on record: 2.5 hours before induction, lavage 24 hours after. The procedure: A rat was immunized intraperitoneally with 1 ml of a solution containing 1 mg of ovalbumin (OVA) and 100 mg of Al(OH)3 on day 0 and day 7. On day 14, a 1% OVA solution was sprayed for 15 minutes using a ultrasonic nebulizer to induce reactions. A test compound was administered intratracheally 2.5 hours before the induction. Bronchoalveolar lavage was performed 24 hours after the induction, and eosinocytes in the wash was stained with Hinkelman to count the number of stained cells. Sensi.−/Challe.+, CMC-Na, and Fluticasone were used as controls. FIG. 1 and the following table show the results.

The test system of a further test is male cynomolgus monkeys. The experiment in a line: Interferon-inducing activity in cynomolgus monkey (in vivo), serum interferon titer and vomition. The settings on record: cynomolgus monkey, in vivo.

Each structure is given as a SMILES string.

Turning to `CCCCNc1nc(N)c2nc(O)n(Cc3ccc(C)nc3)c2n1` [Example 27, 2-Butylamino-8-hydroxy-9-(6-methyl-3-pyridylmethyl)adenine], the Interferon-inducing activity with Balb/c male mouse (dosage 0.03 mg/kg oral) turned out to be 14 ± 3 U/ml; in the test with Balb/c male mouse (dosage 0.1 mg/kg oral), 324 ± 66 U/ml; in the test with Balb/c male mouse (dosage 0.3 mg/kg oral), 804 ± 274 U/ml. For the same molecule, the “eosinocytes in bronchoalveolar lavage, Average” value in test [1] (0.001 mg/kg intratracheal) was 383.85 ×10^4 cells; in test [1] (0.01 mg/kg intratracheal) it was 186.77 ×10^4 cells; in test [1] (0.1 mg/kg intratracheal) it was 46.84 ×10^4 cells. In addition, the “interferon titer in blood serum (average±SE)” value in the test with male cynomolgus monkeys is reported as 14,488±6365 U/ml.
